# Reference: patent US7879876B2, “Sulfonamide derivatives and use thereof for the modulation of metalloproteinases” (Merck Serono SA, priority 2005, dated 2011)
# Experiments:
# [1] = system: IL-2-induced peritoneal recruitment of lymphocytes; assay: IL-2-induced peritoneal recruitment of lymphocytes; format: in vivo, C3H/HEN mice; conditions: Mus musculus, Lymphocyte, po; 3 mg/kg p.o., 15 min prior to IL-2; mice; 24 h after IL-2
# Method: Administration of IL-2 intraperitoneally causes migration of lymphocytes into the intraperitoneal cavity. This is a model for the cellular migration that occurs during inflammation.
# C3H/HEN mice (Elevage Janvier, France) were intraperitoneally injected with IL-2 (Serono Pharmaceutical Research Institute, 20 μg/kg, in saline). Compounds of the invention were suspended in 0.5% carboxymethylcellulose (CMC)/0.25% tween-20 and were administered by s.c. or p.o. route (10 ml/kg) 15 min prior to administration of IL-2.
# Twenty-four hours after administration of IL-2, peritoneal white blood cells were collected by 3 successive lavages of the peritoneal cavity with 5 ml phosphate buffered saline (PBS)-1 mM EDTA (+4° C.). The suspension was centrifuged (1700 g×10 min at +4° C.). The resulting pellet was suspended in 1 ml PBS-1 mM EDTA.
# Lymphocytes were identified and counted using a Beckman/Coulter counter.
# The animals were divided into 6 groups (6 mice each group):
# Group 1: (baseline) received 0.5% CMC/0.25% tween-20 (vehicle of compound of the invention) and saline (vehicle of IL-2);
# Group 2: (control IL-2) received 0.5% CMC/0.25% tween-20 and injection of IL-2;
# Group 3: Experimental group (Compound of the invention Dose 1) received a compound of the invention and injection of IL-2;
# Group 4: Experimental group (Compound of the invention Dose 2) received a compound of the invention and injection of IL-2;
# Group 5: Experimental group (Compound of the invention Dose 3) received a compound of the invention and injection of IL-2;
# Group 6: Reference group received reference compound dexamethasone and injection of IL-2.
# Inhibition of lymphocyte recruitment was calculated as follows:
# Where Ly 1=Number of lymphocytes in group 1 (E3/μl), Ly 2=Number of lymphocytes in group 2 (E3/μl), Ly X=Number of lymphocytes in group X (3-5) (E3/μl).
# MMP13 = MMP13 (Homo sapiens, UniProt P45452); assay: MMP13 inhibition (Table 1); format: biochemical; conditions: read-out: percentage inhibition MMP13
inhibition at 0.1 µM (MMP13),inhibition at 5 µM (MMP13),Compound,inhibition in vivo at 3 mg/kg [1]
–,48%,"COc1cc2c(cc1OC)CN(S(=O)(=O)CC(CCc1ccccc1)N(O)C=O)CC2 (stereo not shown) [Example 12, N-(1-{[(6,7-dimethoxy-3,4-dihydroisoquinolin-2(1H)-yl)sulfonyl]methyl}-3-phenylpropyl)-N-hydroxyformamide]",–
28%,96%,"COc1ccc(C(CS(=O)(=O)N2CCc3ccccc3C2)N(O)C=O)cn1 (stereo not shown) [Example 13, N-[2-(3,4-dihydroisoquinolin-2(1H)-ylsulfonyl)-1-(6-methoxypyridin-3-yl)ethyl]-N-hydroxyformamide]",–
5%,68%,"COc1cc2c(cc1OC)CN(S(=O)(=O)CC([C@H]1COC(C)(C)O1)N(O)C=O)CC2 (stereo partly drawn) [Example 14, N-{2-[(6,7-dimethoxy-3,4-dihydroisoquinolin-2(1H)-yl)sulfonyl]-1-[(4S)-2,2-dimethyl-1,3-dioxolan-4-yl]ethyl}-N-hydroxyformamide]",50 ± 10%

# Second part, the compound before the results:
Compound,inhibition at 0.1 µM (MMP13),inhibition at 5 µM (MMP13),inhibition in vivo at 3 mg/kg [1]
"CC1(C)OC[C@H](C(CS(=O)(=O)N2CCc3ccccc3C2)N(O)C=O)O1 (stereo partly drawn) [Example 2, N-{2-(3,4-dihydroisoquinolin-2(1H)-ylsulfonyl)-1-[(4S)-2,2-dimethyl-1,3-dioxolan-4-yl]ethyl}-N-hydroxyformamide]",17%,98%,16 ± 13%
"O=CN(O)C(CCc1ccccc1)CS(=O)(=O)N1Cc2ccccc2C1 (stereo not shown) [Example 6, N-{1-[(1,3-dihydro-2H-isoindol-2-ylsulfonyl)methyl]-3-phenylpropyl}-N-hydroxyformamide]",11%,94%,40 ± 6%
"O=CN(O)C(CS(=O)(=O)N1CCc2ccccc2C1)c1cccnc1 (stereo not shown) [Example 10, N-[2-(3,4-dihydroisoquinolin-2(1H)-ylsulfonyl)-1-pyridin-3-ylethyl]-N-hydroxyformamide]",–,93%,–
